Experimental data taken from US9079913B2, “Spiro-oxindole MDM2 antagonists” (The Regents of the University of Michigan, priority 2009, dated 2015).
Read-outs that look alike come from different tables or passages of the source.

Legend:
[1] = test system: cancer cell lines with wild-type p53 / mutated or deleted p53 (ATCC); assay: Cell growth assay (WST-8), other cancer cell lines; assay type: cell-based
[2] = molecular target: recombinant human His-tagged MDM2 protein (residues 1-118) (Homo sapiens (Human), UniProt Q00987); assay: Fluorescence-polarization MDM2 binding assay; conditions: for IC50: Table 19A, FP binding assay, read-out: MDM2 IC50;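 as to all read-outs here: fluorescence polarization read after three hours of incubation in potassium phosphate buffer containing bovine gamma globulin and Triton X-100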
Chain of recombinant human His-tagged MDM2 protein (residues 1-118) (Q00987 1-118): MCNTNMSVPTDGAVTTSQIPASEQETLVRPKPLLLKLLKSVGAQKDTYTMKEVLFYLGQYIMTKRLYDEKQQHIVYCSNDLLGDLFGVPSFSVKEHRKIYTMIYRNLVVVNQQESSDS

[3] = In vitro microsomal stability, human; assay type: in vitro ADME; conditions: for Microsomal stability, % remaining: Human Microsome, same batch
[4] = Pharmacokinetic studies in rats; assay type: in vivo, rat
Procedure: Pharmacokinetic studies on MDM2 inhibitors were carried out in rat. For comparison, the MDM2 inhibitor, AT-219, was also studied.

[5] = test system: Isogenic HCT-116 colon cancer cell lines; assay: cells; assay type: cell-based; conditions: cell growth;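 also: cells grown in 96-well plates in McCoy's 5A medium with 10% FBS, exposed to compound for 4 days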
Procedure: Cells were seeded in 96-well flat bottom cell culture plates at a density of 2−3×10^3 cells/well with compounds and incubated for 4 days.

[6] = In vitro microsomal stability, rat; assay type: in vitro ADME; conditions: for Microsomal stability, % remaining: Rat Microsome, same batch; for microsomal stability (in words) / % of compound remaining when incubated in rat liver microsomes with NADPH: rat liver microsomes
[7] = Homo sapiens, LNCaP, Table 19A, LNCAP cells, p53 wild-type, cell growth, read-out: LNCAP (p53 wild-type) IC50
[8] = rat, plasma, male rats, oral dose 15 mg/kg
[9] = Homo sapiens, HCT-116, read-out: HCT-116 (p53 wild-type) IC50, Table 19A, HCT-116 p53 wild-type

Compound `CC(C)(C)C[C@H]1N[C@@H](C(=O)NCC[C@H](O)CN2CC[C@@H](O)C2)[C@H](c2cccc(Cl)c2)[C@@]12C(=O)Nc1cc(Cl)c(F)cc12` [MI-519-29] has an IC50 [1, 7] of less than 5 µM, an IC50 ([1]; Homo sapiens, PC-3, Table 19A, PC-3 cells, deleted p53, cell growth, read-out: PC-3 (deleted p53) IC50) greater than 10 µM and an IC50 [2] of less than 1 µM. For the same compound, the “Microsomal stability, % remaining” value ([3]; 0 min) was 100.00%, the “Microsomal stability, % remaining” value ([3]; 5 min) was 70.67% and the “Microsomal stability, % remaining” value ([3]; 10 min) was 56.31%. For the same compound, the “Microsomal stability, % remaining” value ([3]; 15 min) was 49.52%, the “Microsomal stability, % remaining” value ([3]; 30 min) was 45.48% and the “Microsomal stability, % remaining” value ([3]; 45 min) was 40.08%. The “Microsomal stability, % remaining” value ([3]; 60 min) was 35.28%, the “% of compound remaining when incubated in human liver microsomes with NADPH” value ([3]; human liver microsomes, 0 min) was 100.00% and the “% of compound remaining when incubated in human liver microsomes with NADPH” value ([3]; human liver microsomes, 5 min) was 70.67%. The “% of compound remaining when incubated in human liver microsomes with NADPH” value ([3]; human liver microsomes, 10 min) was 56.31%, the “% of compound remaining when incubated in human liver microsomes with NADPH” value ([3]; human liver microsomes, 15 min) was 49.52% and the “% of compound remaining when incubated in human liver microsomes with NADPH” value ([3]; human liver microsomes, 30 min) was 45.48%. The “% of compound remaining when incubated in human liver microsomes with NADPH” value ([3]; human liver microsomes, 45 min) was 40.08%, the “% of compound remaining when incubated in human liver microsomes with NADPH” value ([3]; human liver microsomes, 60 min) was 35.28% and the half-life ([3]; human, liver microsomes, human liver microsomes with NADPH) was 12.1 min. For the same compound, the “oral bioavailability / oral pharmacokinetics in rats (in words)” value ([4]; oral dosing, rats) was “much inferior oral pharmacokinetic parameters”, the bioavailability [4, 8] was less than 1% and the half-life [4, 8] was 414 ± 450 min. It also gave an AUC(0-t) ([4]; rat, plasma, male rats, oral dose 15 mg/kg, read-out: AUC(0-t)) of 28000 ± 15000 ng·h/mL, a Cmax ([4]; rat, plasma, male rats, oral dose 15 mg/kg, read-out: Cmax) of 51 ± 30 ng/mL and an IC50 ([5]; Homo sapiens, HCT-116, read-out: HCT-116 (p53-/-) IC50, Table 19A, HCT-116 p53-/-) greater than 10 µM. For the same compound, the IC50 [5, 9] was less than 5 µM, the “Microsomal stability, % remaining” value ([6]; 0 min) was 100.00% and the “Microsomal stability, % remaining” value ([6]; 5 min) was 93.42%. The “Microsomal stability, % remaining” value ([6]; 10 min) was 84.91%, the “Microsomal stability, % remaining” value ([6]; 15 min) was 82.81% and the “Microsomal stability, % remaining” value ([6]; 30 min) was 70.75%. The “Microsomal stability, % remaining” value ([6]; 45 min) was 71.89%, the “Microsomal stability, % remaining” value ([6]; 60 min) was 69.91% and the “microsomal stability (in words)” value [6] was “improved stability over MI-219”. For the same compound, the “% of compound remaining when incubated in rat liver microsomes with NADPH” value ([6]; 0 min) was 100.00%, the “% of compound remaining when incubated in rat liver microsomes with NADPH” value ([6]; 5 min) was 93.42% and the “% of compound remaining when incubated in rat liver microsomes with NADPH” value ([6]; 10 min) was 84.91%. For the same compound, the “% of compound remaining when incubated in rat liver microsomes with NADPH” value ([6]; 15 min) was 82.81%, the “% of compound remaining when incubated in rat liver microsomes with NADPH” value ([6]; 30 min) was 70.75% and the “% of compound remaining when incubated in rat liver microsomes with NADPH” value ([6]; 45 min) was 71.89%. The “% of compound remaining when incubated in rat liver microsomes with NADPH” value ([6]; 60 min) was 69.91% and the half-life ([6]; rat, liver microsomes, rat liver microsomes with NADPH) was 61.3 min.
Work on `CC(C)(C)C[C@H]1N[C@@H](C(=O)NC2CCC(NS(C)(=O)=O)CC2)[C@H](c2cccc(Cl)c2F)[C@@]12C(=O)Nc1cc(Cl)ccc12` (stereo partly shown) [MI-771] yielded an IC50 [1, 7] of 1.1 ± 0.1 µM, an IC50 ([1]; Homo sapiens, SJSA-1, Table 19A, SJSA-1 cells, p53 wild-type, cell growth, read-out: SJSA-1 (p53 wild-type) IC50) of 1.2 ± 0.3 µM and an IC50 ([1]; Table 19A, PC-3 cells, deleted p53, cell growth, read-out: PC-3 (deleted p53) IC50) of 13.7 ± 4.4 µM. For the same compound, the “cell growth inhibition (in words)” value ([1]; cancer cell lines with wild-type p53) was “effectively inhibit cell growth”, the IC50 [2] was less than 1 µM and the “binding to MDM2 (in words)” value ([2]; human MDM2 protein) was “high affinities”. For the same compound, the “microsomal stability (in words)” value ([3]; human liver microsomes) was “very poor microsomal stability”, the t1/2 ([3]; human liver microsomes with NADPH) was 3.12 min and the “% of compound remaining when incubated in human liver microsomes with NADPH” value ([3]; human liver microsomes, 0 min) was 100.00%. For the same compound, the “% of compound remaining when incubated in human liver microsomes with NADPH” value ([3]; human liver microsomes, 5 min) was 27.98%, the “% of compound remaining when incubated in human liver microsomes with NADPH” value ([3]; human liver microsomes, 10 min) was 10.82% and the “% of compound remaining when incubated in human liver microsomes with NADPH” value ([3]; human liver microsomes, 15 min) was 4.30%. For the same compound, the “% of compound remaining when incubated in human liver microsomes with NADPH” value ([3]; human liver microsomes, 30 min) was 0.82%, the “% of compound remaining when incubated in human liver microsomes with NADPH” value ([3]; human liver microsomes, 45 min) was 0.00% and the “% of compound remaining when incubated in human liver microsomes with NADPH” value ([3]; human liver microsomes, 60 min) was 0.00%. The CLz ([4]; rat, IV, 5 mg/kg, plasma, parent compound) was 36.7 mL/min/kg, the Vd ([4]; rat, plasma, iv, 5 mg/kg, rat, IV, 5 mg/kg, plasma, parent compound, read-out: Vz) was 7.1 L/kg and the “pharmacokinetic profile (in words)” value ([4]; rats, intravenous and oral routes of dosing) was “very poor pharmacokinetic profile”. For the same compound, the IC50 [5, 9] was 1 ± 0.3 µM, the IC50 ([5]; read-out: HCT-116 (p53-/-) IC50, Table 19A, HCT-116 p53-/-) was 12 ± 1.1 µM and the “microsomal stability (in words)” value [6] was “very poor microsomal stability”. The t1/2 ([6]; rat liver microsomes with NADPH) was 2.69 min, the “% of compound remaining when incubated in rat liver microsomes with NADPH” value ([6]; 0 min) was 100.00% and the “% of compound remaining when incubated in rat liver microsomes with NADPH” value ([6]; 5 min) was 20.48%. For the same compound, the “% of compound remaining when incubated in rat liver microsomes with NADPH” value ([6]; 10 min) was 7.59%, the “% of compound remaining when incubated in rat liver microsomes with NADPH” value ([6]; 15 min) was 3.57% and the “% of compound remaining when incubated in rat liver microsomes with NADPH” value ([6]; 30 min) was 1.22%. For the same compound, the “% of compound remaining when incubated in rat liver microsomes with NADPH” value ([6]; 45 min) was 0.66% and the “% of compound remaining when incubated in rat liver microsomes with NADPH” value ([6]; 60 min) was 0.46%.
